Assay results taken from patent US20060205697A1, “Novel betulin derivatives, preparation thereof and use thereof” (priority 2004, published 2006).
Where two headings read alike, the source gives them in different places.

Columns and labels:
[1] = Compound toxicity in mock-infected MT-2 cells, XTT method; assay type: cell-based; conditions: human
Experimental: (§1) The human T-cell line, MT-2, was maintained in continuous culture with complete medium (RPMI 1640 with 10% fetal calf serum supplemented with L-glutamine at 5% CO2 and 37° C.). Test samples were first dissolved in dimethyl sulfoxide at a concentration of 10 mg/mL to generate master stocks with dilutions made into tissue culture media to generate working stocks. The final drug concentrations used for screening were 25. 2.5, 0.25, and 0.025 μg/mL. For agents found to be active, additional dilutions were prepared for subsequent testing so that an accurate EC50 value (defined below) could be determined. Test samples were prepared in duplicate (45 μL/well) and to each sample well was added […] of media containing MT-2 cells at 3×10^5 cells/mL and 45 μL of virus inoculum (HIV-1 IIIIB isolate) at a concentration necessary to result in 50% killing of the cell targets at 5 days post-infection (PI). Control wells containing virus and cells only (no drug) and cells only (no virus or drug) were also prepared. A second set of samples were prepared identical to the first and were added to cells under identical conditions without virus (mock infection) for toxicity determinations (IC50 defined below). In addition, AZT was also assayed during each experiment as a positive drug control. On day 5 PI, virus-induced cell killing was determined by measuring cell viability using the XTT method (Roehm, N., et al., supra). Compound toxicity was determined by XTT using the mock-infected samples. If a test sample had suppressive capability and was not toxic, its effects were reported in the following terms: IC50, the concentration of test sample which is toxic to 50% of the mock-infected MT-2 cells; EC50, the concentration of the test sample that is able to suppress HIV replication by 50%; and the Therapeutic index (TI) the ratio of the IC50 to EC50. The effective (EC50) and inhibitory (IC50) concentrations for anti-HIV activity and cytotoxicity, respectively, were determined (Roehm, N., et al., supra).

[2] = system: HIV-1 IIIIB isolate; experiment: HIV-1 inhibition: suppression of virus-induced cell killing in MT-2 cells, XTT method; assay type: cell-based; conditions: Human immunodeficiency virus 1, IIIB, MT2, 120 h, read-out: anti-HIV activity (EC50)
Experimental: The biological evaluation of HIV-1 inhibition can be carried out as follows according to established protocols (Montefiori, D. C., et al., Clin. Microbiol. 26:231-235 (1988); Roehm, N., et al. J. Immunol. Methods 142:257-265 (1991)).
as §1

[3] = system: HIV-1 replication in H9 lymphocyte cells; conditions: cited from earlier work

SMILES	IC50 at 5 days [1] [nM]	EC50 [2] [nM]	T.I. ([3]; H9 lymphocyte cells)	EC50 ([3]; unit inferred, Fujioka et al. 1994, read-out: EC50, anti-HIV activity) [nM]	EC50 ([3]; H9 lymphocyte cells, read-out: EC50, inhibitory activity against HIV-1 replication) [nM]
C=C(C)[C@@H]1CC[C@]2(C(=O)OC3CCOC3)CC[C@]3(C)[C@H](CC[C@@H]4[C@@]5(C)CC[C@H](OC(=O)CC(C)(C)CC(=O)O)C(C)(C)[C@@H]5CC[C@]43C)[C@@H]12 (mixture of isomers) [Compound 231, 3-O-(31,3′-Dimethylglutaryl)betulinic acid 3-(R/S)-3-(tetrahydrofuranyl) ester]	5000 to 100000	1 to 300	–	–	–
C=C(C)[C@@H]1CC[C@]2(CN)CC[C@]3(C)[C@H](CC[C@@H]4[C@@]5(C)CC[C@H](OC(=O)CC(C)(C)CC(=O)O)C(C)(C)[C@@H]5CC[C@]43C)[C@@H]12 [Compound 49, 3-O-(3′,3′-dimethylglutaryl)lup-20(29)-en-28-ylamine]	5000 to 100000	1 to 300	–	–	–
C=C(C)[C@@H]1CC[C@]2(C(=O)OCCC#N)CC[C@]3(C)[C@H](CCC4[C@@]5(C)CC[C@H](OC(=O)CC(C)(C)CC(=O)O)C(C)(C)C5CC[C@]43C)C12 (some centres unmarked) [Compound 206, 3-O-(3′,3′-Dimethylglutaryl)betulinic acid 2-cyanoethyl ester]	5000 to 100000	1 to 300	–	–	–
C=C(C)[C@@H]1CC[C@]2(C(=O)OCCN(C)C)CC[C@]3(C)[C@H](CCC4[C@@]5(C)CC[C@H](OC(=O)CC(C)(C)CC(=O)O)C(C)(C)C5CC[C@]43C)C12 (some centres unmarked) [Compound 218, 3-O-(3′,3′-Dimethylglutaryl)betulinic acid 2-N,N-dimethylaminoethyl ester]	5000 to 100000	1 to 300	–	–	–
C=C(C)[C@@H]1CC[C@]2(C(=O)OCCOC)CC[C@]3(C)[C@H](CC[C@@H]4[C@@]5(C)CC[C@H](OC(=O)CC(C)(C)CC(=O)O)C(C)(C)[C@@H]5CC[C@]43C)[C@@H]12 [Compound 223, 3-O-(3′,3′-Dimethylglutaryl)betulinic acid 2-methoxyethyl ester]	5000 to 100000	1 to 300	–	–	–
C=C(C)[C@@H]1CC[C@]2(C(=O)OC3CCN(C(=O)OC(C)(C)C)C3)CC[C@]3(C)[C@H](CC[C@@H]4[C@@]5(C)CC[C@H](OC(=O)CC(C)(C)CC(=O)O)C(C)(C)[C@@H]5CC[C@]43C)[C@@H]12 (stereo partly drawn) [Compound 227, 3-O-(3′,3′-Dimethylglutaryl)betulinic acid (R)-3-[1-(tert-butoxycarbonyl)-pyrrolidinyl] ester]	5000 to 100000	1 to 300	–	–	–
C=C(C)[C@@H]1CC[C@]2(C(=O)OCC)CC[C@]3(C)[C@H](CC[C@@H]4[C@@]5(C)CC[C@H](OC(=O)CC(C)(C)CC(=O)O)C(C)(C)[C@@H]5CC[C@]43C)[C@@H]12 [Compound 235, 3-O-(3′,3′-Dimethylglutaryl)betulinic acid ethyl ester]	5000 to 100000	1 to 300	–	–	–
C=C(C)[C@@H]1CC[C@]2(CNC(=O)OC(C)(C)C)CC[C@]3(C)[C@H](CC[C@@H]4[C@@]5(C)CC[C@H](OC(=O)CC(C)(C)CC(=O)O)C(C)(C)[C@@H]5CC[C@]43C)[C@@H]12 [Compound 1065, tert-Butoxycarboxamide N-[3-O-(3′,3′-dimethylglutaryl)lup-20(29)-en-28-yl]]	5000 to 100000	1 to 300	–	–	–
CC(C)[C@@H]1CC[C@]2(C(=O)O)CC[C@]3(C)C(CCC4[C@@]5(C)CC[C@H](O)C(C)(C)C5CC[C@]43C)C12 (some centres unmarked) [dihydrobetulinic acid]	–	–	14	900	–
CC(=O)[C@@H]1CC[C@]2(C(=O)O)CC[C@]3(C)[C@H](CC[C@@H]4[C@@]5(C)CC[C@H](O)C(C)(C)[C@@H]5CC[C@]43C)[C@@H]12 [platanic acid]	–	–	14	–	6500
